Here are results for 3 compounds from ChEMBL document CHEMBL1142574, “Identification of radical scavenging compounds in Rhaponticum carthamoides by means of LC-DAD-SPE-NMR” (J Nat Prod, 2005).

The subject of the first experiment is Radical scavenging activity. The experiment in a line: Antioxidant activity assessed as DPPH radical scavenging activity studied at DPPH to compound ratio of 5. It is filed as functional. The following applies: dose or concentration not given here.
On to `Cc1c(C)c2c(c(C)c1O)CCC(C)(C(=O)O)O2` (stereo unspecified), for which the inhibition was 79%.

For the compound `CC(=O)OC[C@H]1O[C@@H](Oc2cc3oc(-c4ccc(O)cc4)c(O)c(=O)c3c(O)c2O)[C@H](O)[C@@H](O)[C@@H]1O`, the inhibition worked out at 36%.

On to `O=C(/C=C/c1ccc(O)c(O)c1)O[C@H](Cc1ccc(O)c(O)c1)C(=O)O`, for which the inhibition was found to be 89%.

In the next experiment the test system is Radical scavenging activity. Nature of the experiment: Antioxidant activity assessed as DPPH radical scavenging activity studied at DPPH to compound ratio of 2. The format is functional. The note with it: dose or concentration not given here.
With `Cc1c(C)c2c(c(C)c1O)CCC(C)(C(=O)O)O2` (stereo unspecified), the inhibition was 98%.

With `CC(=O)OC[C@H]1O[C@@H](Oc2cc3oc(-c4ccc(O)cc4)c(O)c(=O)c3c(O)c2O)[C@H](O)[C@@H](O)[C@@H]1O`, the inhibition came to 75%.

As to `O=C(/C=C/c1ccc(O)c(O)c1)O[C@H](Cc1ccc(O)c(O)c1)C(=O)O`, the inhibition was 98%.
